Tests used:
[1] = Biodistribution and intra-tissue distribution in diabetic mice; format: in vivo; conditions: three days after s.c. 10 mg/kg; CD31 staining
[2] = SPECT/CT imaging of 131I-labelled insulin-129 in diabetic mice; format: in vivo; conditions: s.c. 10 mg/kg
[3] = tested on: type 1 diabetic mice; assay: In vivo glucose-responsive insulin release in mice; conditions: 400 U/kg; i.p. glucose 3.0 g/kg at three and six hours; n = 5
[4] = tested on: type 1 diabetic minipigs; assay: Type 1 diabetes treatment study in minipigs; format: in vivo, Bama minipigs
[5] = tested on: STZ-induced type 1 diabetic mice; assay: Type 1 diabetes treatment study in mice; format: in vivo, C57BL/6 mice

## Cy5-labelled insulin-129: insulin-129 labelled with Sulfo-Cy5-NHS
[1]
  vascular association within the major organs: high level of vascular association

## ^131I-labelled insulin-129: insulin-129 labelled by 131I using the chloramine T labelling method
[2]
  skin absorption: rapid skin absorption

## insulin glargine [reference compound]
[3]
  BG-correlated changes of insulin level: did not display BG-correlated changes
[4]; Pig-Ⅰ, single dose 0.25 U/kg
  time BG regulated in the normal range: less than 12 hours
[4]; Pig-Ⅱ, single dose 0.33 U/kg
  time BG regulated in the normal range: less than 24 hours
[4]; Pig-Ⅲ, single dose 0.48 U/kg
  time BG regulated in the normal range: less than 12 hours
[4]; n = 3, statistical time 0-168 h for insulin-129 and 0-24 h for Lantus
  time BG remained within the target range (70 to 200 mg/dL): 42.9%
[5]; 40 U/kg every 24 hours for seven days, n = 5
  glycaemic control with consecutive daily injections: poor glycaemic control
[5]; single s.c. 40 U/kg (equivalent to 1.46 mg/kg), n = 5
  time normoglycaemia maintained: 4 h
[5]; single s.c. 400 U/kg (equivalent to 14.6 mg/kg), n = 5
  time normoglycaemia maintained: 12 h

## insulin icodec [reference compound]
[5]; 400 U/kg
  duration relative to insulin-129 at 12 mg/kg: roughly one-third
[5]; single s.c. 400 U/kg (equivalent to 15.3 mg/kg), n = 5
  time normoglycaemia maintained: approximately 72 hours

— article doi:10.1101/2025.10.12.681846v1 (bioRxiv, 2025)
